Results as given in US10695425B2, “Methods for treating and/or limiting development of diabetes in subjects with amyotrophic lateral sclerosis” (Biocrine AB, priority 2015, dated 2020).

Test system: αTC1-6 cells
Test: K+ depolarization-induced [Ca2+]i response in αTC1-6 cells (fura-2)
Assay type: cell-based, mouse
Conditions: αTC1-6 cells pre-exposed to specific Ca2+ channel blocker
Description: A glucose concentration of 11 mM was used for islet stimulation. After loading, islets and cells on the glass coverslips were transferred to an open perifusion chamber maintained at 37° C. and [Ca^2+]i measured as the 340/380 nm ratio. The light source was equipped with a xenon arc lamp and an integrated shutter (Lambda DG-4, Sutter instrument company), and coupled to the microscope (Olympus ix 71) via a liquid light guide. The 16-bit grayscale images with a binning of 1×1 were captured every 1 s (exposure time ranged from 100 to 300 ms) with a cooled EM-CCD camera (ImagEM X2, Hamamatsu). The camera and shutter were controlled by METAFLUOR® (Molecular Devices) software, which was also used for analysis. Cells with bright [Ca^2+]i signal defined the regions of interest (ROIs). ROI signals were calculated by subtracting background noise signal.

w-agatoxin TK
blocker-sensitive share of K+ depolarization-induced [Ca2+]i increase: considerable number
